# Patent publication US7541020B2, “Aminoalkyl glucosaminide phosphate compounds and their use as adjuvants and immunoeffectors” (priority 1997, dated 2009)
# Values joined by “and” are separate entries in the source; they are usually repeats but may differ in a detail not shown here. Equal entries are not always repeated. Where two headings read alike, the source gives them in different places.
# Columns and labels:
# tetanus toxoid [1] = system: tetanus toxoid; parameters: species or system BFD1 (C57B1/6X DBA/2) female mice; conditions: mouse, in vivo
# E.G7 (OVA) cells = conditions: s.c. 25 μg OVA in AGP preparation, spleen cells 21 days later
# TNF-α = experiment: Cytokine induction in human whole blood ex vivo culture: TNF-α (ELISA); type: cell-based; conditions: 4 hr
# Experimental: (§1) AGP compounds were solubilized in 10% EtOH-water and diluted to various concentrations. Fifty μl of each dilution were added to 450 μl of whole human blood. Controls were treated with culture media (RPMI). The reaction mixture was incubated at 37° C. for 4 hr with constant mixing on a rotator. Sterile PBS (1.5 ml) was added to the reaction mixture, the cells were centrifuged and the supernatents removed for cytokine testing. The concentration of TNF-α and IL-1β in each supernatent was determined using immunoassay ELISA kits from R&D Systems.
# IL-1β = experiment: Cytokine induction in human whole blood ex vivo culture: IL-1β (ELISA); type: cell-based; conditions: 4 hr
# Experimental: as §1
# influenza A/HK/68 = type: in vivo, ICR mice
# tetanus toxoid [2] = conditions: mouse, in vivo, sc
# [3] = Fever response in rabbits (pyrogenicity); type: in vivo; conditions: for PYROGENICITY Total Rise ° C., 3 rabbits: 10 ug/kg, cumulative rise ≥1.5 degree in three rabbits is considered pyrogenic; for PY[…]: rabbits
# Experimental: The AGP compounds were also evaluated for their tendency to induce a fever response in rabbits. Each compound was formulated in 10% (v/v) ethanol/water solution at 100 mg/ml, then diluted with D5W to the desired concentration. The material was injected at 3 ml/kg body weight into 3 rabbits. The rise in core temperature of the rabbits was recorded.
# ovalbumin = experiment: Stimulation of antiovalbumin antibody production; type: in vivo, BDF1 female mice; conditions: 50 μg AGP + 50 μg ovalbumin; second immunization day 21; bled 14 days after second injection
# Experimental: BDF1 female mice (8 per group) were immunized with 0.2 ml of emulsions containing 50 μg of the AGPs +50 μg of ovalbumin. A second immunization was administered 21 days post primary. Each mouse was bled 14 days after the second injection.
# [4] = 25 μg AGP + 1 HAU FI-Flu in 0.2% TEoA, once, bled day 14, Table 11
compound,measurement,setting,value
"CCCCCCCCCCCC(=O)O[C@H](CCCCCCCCCCC)CC(=O)N[C@H]1[C@H](OC[C@H](NC(=O)C[C@@H](CCCCCCCCCCC)OC(=O)CCCCCCCCCCC)C(=O)O)O[C@H](CO)[C@@H](OP(=O)(O)O)[C@@H]1OC(=O)C[C@@H](CCCCCCCCCCC)OC(=O)CCCCCCCCCCC.CCN(CC)CC [B12, N-[(R)-3-Dodecanoyloxytetradecanoyl]-o-[2-Deoxy-4-O-phosphono-2-[(R)-3-dodecanoyloxytetradecanoylamino]-3-O-[(R)-3-dodecanoyloxytetradecanoyl]-β-D-glucopyranosyl]-L-serine Triethylammonium Salt]",IgG1 T/C,tetanus toxoid [1],90.08 and 141.22 and 145.21 and 81.12 and 84.11
same,IgG1 Titer,tetanus toxoid [1],"165,486 and 259,429 and 266,743 and 149,029 and 154,514"
same,Total Ig T/C,tetanus toxoid [1],326.02 and 368.55 and 403.98 and 248.06 and 489.92
same,Total Ig Titer,tetanus toxoid [1],"42,057 and 47,543 and 52,114 and 32,000 and 63,200"
same,% Cytotoxicity,E.G7 (OVA) cells; E:T 12.5:1,4%
same,% Cytotoxicity,E.G7 (OVA) cells; E:T 25:1,7%
same,% Cytotoxicity,E.G7 (OVA) cells; E:T 50:1,13%
same,TNF-α,"TNF-α; Dosage 1000 ng/ml, Table 19",863 pg/mL
same,TNF-α,"TNF-α; Dosage 5000 ng/ml, Table 19",957 pg/mL
same,TNF-α,"TNF-α; Dosage 10,000 ng/ml, Table 19",1017 pg/mL
same,IL-1β,"IL-1β; Dosage 1000 ng/ml, Table 19",175 pg/mL
same,IL-1β,"IL-1β; Dosage 5000 ng/ml, Table 19",153 pg/mL
same,IL-1β,"IL-1β; Dosage 10,000 ng/ml, Table 19",135 pg/mL
same,Titer^−1 IgG1,influenza A/HK/68; [4],200
same,Titer^−1 IgG2a,influenza A/HK/68; [4],100
same,Titer^−1 IgG2b,influenza A/HK/68; [4],200
same,Titer^−1 Total IgG,influenza A/HK/68; [4],200
same,Percent Survival,"influenza A/HK/68; […], mortality 21 days, Table 11",0%
same,Anti-tetanus toxoid IgG2a T/C,tetanus toxoid [2],139.4
same,Anti-tetanus toxoid IgG2a titer,tetanus toxoid [2],2370
same,Anti-tetanus toxoid IgG2b T/C,tetanus toxoid [2],149
same,Anti-tetanus toxoid IgG2b titer,tetanus toxoid [2],9840
same,Anti-tetanus toxoid IgM T/C,tetanus toxoid [2],3.1
same,Anti-tetanus toxoid IgM titer,tetanus toxoid [2],4800
"CCCCCCCCCCCCCC(=O)O[C@H](CCCCCCCCCCC)CC(=O)N[C@H]1[C@H](OC[C@H](NC(=O)C[C@@H](CCCCCCCCCCC)OC(=O)CCCCCCCCCCCCC)C(=O)OC)O[C@H](CO)[C@@H](OP(=O)(O)O)[C@@H]1OC(=O)C[C@@H](CCCCCCCCCCC)OC(=O)CCCCCCCCCCCCC.CCN(CC)CC [B26, N-[(R)-3-Tetradecanoyloxytetradecanoyl]-O-[2-deoxy-4-O-phosphono-2-[(R)-3-tetradecanoyloxytetradecanoylamino]-3-O-[(R)-3-tetradecanoyloxytetradecanoyl]-β-D-glucopyranosyl]-1-serine Methyl Ester Triethylammoniun Salt]","PYROGENICITY Total Rise ° C., 3 rabbits",[3],1.7 °C
same,PY[…],[3],5 µg/kg
same,% Cytotoxicity,E.G7 (OVA) cells; E:T 12.5:1,4%
same,% Cytotoxicity,E.G7 (OVA) cells; E:T 25:1,8%
same,% Cytotoxicity,E.G7 (OVA) cells; E:T 50:1,14%
same,TNF-α,"TNF-α; Dosage 1 μg, 37° C., Table 14",38.85 pg/mL
same,TNF-α,"TNF-α; Dosage 5 μg, 37° C., Table 14",75.62 pg/mL
same,TNF-α,"TNF-α; Dosage 10 μg, 37° C., Table 14",254.94 pg/mL
same,TNF-α,"TNF-α; Dosage 20 μg, 37° C., Table 14",498.90 pg/mL
same,IL-1β,"IL-1β; Dosage 1 μg, 37° C., Table 14",3.90 pg/mL
same,IL-1β,"IL-1β; Dosage 5 μg, 37° C., Table 14",9.89 pg/mL
same,IL-1β,"IL-1β; Dosage 10 μg, 37° C., Table 14",25.34 pg/mL
same,IL-1β,"IL-1β; Dosage 20 μg, 37° C., Table 14",33.25 pg/mL
same,Anti-tetanus toxoid IgG1 T/C,tetanus toxoid [2],16.9
same,Anti-tetanus toxoid IgG1 Titer,tetanus toxoid [2],"25,200"
same,Anti-tetanus toxoid IgG2a T/C,tetanus toxoid [2],29.3
same,Anti-tetanus toxoid IgG2a Titer,tetanus toxoid [2],440
same,Anti-tetanus toxoid IgG2b T/C,tetanus toxoid [2],42.6
same,Anti-tetanus toxoid IgG2b Titer,tetanus toxoid [2],"2,260"
same,Anti-tetanus toxoid IgM T/C,tetanus toxoid [2],1.1
same,Anti-tetanus toxoid IgM Titer,tetanus toxoid [2],600
same,Anti-tetanus toxoid Total Ig T/C,tetanus toxoid [2],10.5
same,Anti-tetanus toxoid Total Ig Titer,tetanus toxoid [2],"2,490"
N-[(R)-3-Octanoyloxytetradecanoyl]-O-[2-deoxy-4-O-phosphono-2-[(R)-3-octanoyloxytetradecanoylamino]-3-O-[(R)-3-octanoyloxytetradecanoyl]-β-D-glucopyranosyl]-L-serine Triethylammonium Salt [B17],"PYROGENICITY Total Rise ° C., 3 rabbits",[3],3.4 °C
same,% Cytotoxicity,E.G7 (OVA) cells; E:T 12.5:1,15%
same,% Cytotoxicity,E.G7 (OVA) cells; E:T 25:1,26%
same,% Cytotoxicity,E.G7 (OVA) cells; E:T 50:1,39%
same,TNF-α,"TNF-α; Dosage 1000 ng/ml, Table 19",2.6 pg/mL
same,TNF-α,"TNF-α; Dosage 5000 ng/ml, Table 19",2.2 pg/mL
same,TNF-α,"TNF-α; Dosage 10,000 ng/ml, Table 19",2.8 pg/mL
same,IL-1β,"IL-1β; Dosage 1000 ng/ml, Table 19",0.2 pg/mL
same,IL-1β,"IL-1β; Dosage 5000 ng/ml, Table 19",0 pg/mL
same,IL-1β,"IL-1β; Dosage 10,000 ng/ml, Table 19",0 pg/mL
same,Percent Survival,"influenza A/HK/68; mouse, in vivo",40%
same,Titer^−1 IgG1,"influenza A/HK/68; mouse, in vivo",3200
same,Titer^−1 IgG2a,"influenza A/HK/68; mouse, in vivo",3200
same,Titer^−1 IgG2b,"influenza A/HK/68; mouse, in vivo",1600
same,Titer^−1 Total IgG,"influenza A/HK/68; mouse, in vivo",6400
N-[(R)-3-Tetradecanoyloxytetradecanoyl]-O-[2-Deoxy-4-O-phosphono-2-[(R)-3-tetradecanoyloxytetradecanoylamino]-3-O-[(R)-3-tetradecanoyloxytetradecanoyl]-β-D-glucopyranosyl]-L-serine Triethylammonium Salt [B11],PY[…],[3],0.3 to 0.6 µg/kg
same,Anti-ovalbumin IgG1 T/C,ovalbumin,1.6
same,Anti-ovalbumin IgG1 Titer,ovalbumin,2650
same,Anti-ovalbumin IgG2a T/C,ovalbumin,1.7
same,Anti-ovalbumin IgG2a Titer,ovalbumin,550
same,Anti-ovalbumin IgG2b T/C,ovalbumin,1.6
same,Anti-ovalbumin IgG2b Titer,ovalbumin,375
same,Anti-ovalbumin IgM T/C,ovalbumin,1.3
same,Anti-ovalbumin IgM Titer,ovalbumin,250
same,Anti-ovalbumin Total Ig T/C,ovalbumin,0.7
same,Anti-ovalbumin Total Ig Titer,ovalbumin,150
same,% Cytotoxicity,E.G7 (OVA) cells; E:T 12.5:1,5%
same,% Cytotoxicity,E.G7 (OVA) cells; E:T 25:1,8%
same,% Cytotoxicity,E.G7 (OVA) cells; E:T 50:1,14%
same,TNF-α,"TNF-α; Dosage 100 ng/ml, Table 17",127 pg/mL
same,TNF-α,"TNF-α; Dosage 500 ng/ml, Table 17",125 pg/mL
same,TNF-α,"TNF-α; Dosage 1000 ng/ml, Table 17",115 pg/mL
same,TNF-α,"TNF-α; Dosage 5000 ng/ml, Table 17",139 pg/mL
same,TNF-α,"TNF-α; Dosage 10,000 ng/ml, Table 17",181 pg/mL
same,IL-1β,"IL-1β; Dosage 100 ng/ml, Table 17",59.8 pg/mL
same,IL-1β,"IL-1β; Dosage 500 ng/ml, Table 17",55.8 pg/mL
same,IL-1β,"IL-1β; Dosage 1000 ng/ml, Table 17",54.5 pg/mL
same,IL-1β,"IL-1β; Dosage 5000 ng/ml, Table 17",61.7 pg/mL
same,IL-1β,"IL-1β; Dosage 10,000 ng/ml, Table 17",62.3 pg/mL
same,Percent Survival,"influenza A/HK/68; mouse, in vivo",30%
same,Titer^−1 IgG1,"influenza A/HK/68; mouse, in vivo",200
same,Titer^−1 IgG2a,"influenza A/HK/68; mouse, in vivo",1600
same,Titer^−1 IgG2b,"influenza A/HK/68; mouse, in vivo",400
same,Titer^−1 Total IgG,"influenza A/HK/68; mouse, in vivo",1600
same,Anti-tetanus toxoid IgG1 T/C,tetanus toxoid [2],1.86
same,Anti-tetanus toxoid IgG1 Titer,tetanus toxoid [2],"400,000"
same,Anti-tetanus toxoid IgG2a Titer,tetanus toxoid [2],"10,450"
same,Anti-tetanus toxoid IgG2a titer,tetanus toxoid [2],5900
same,Anti-tetanus toxoid IgG2b Titer,tetanus toxoid [2],"26,800"
same,Anti-tetanus toxoid IgG2b titer,tetanus toxoid [2],8400
same,Anti-tetanus toxoid IgM T/C,tetanus toxoid [2],4.75 and 3.3
same,Anti-tetanus toxoid IgM Titer,tetanus toxoid [2],"7,600"
same,Anti-tetanus toxoid IgM titer,tetanus toxoid [2],5120
same,Anti-tetanus toxoid Total IgG T/C,tetanus toxoid [2],3.6
same,Anti-tetanus toxoid Total IgG Titer,tetanus toxoid [2],"23,200"
